Measured values as given in ChEMBL document CHEMBL5034013, “Discovery of VNRX-7145 (VNRX-5236 Etzadroxil): An Orally Bioavailable β-Lactamase Inhibitor for Enterobacterales Expressing Ambler Class A, C, and D Enzymes” (J Med Chem, 2021).

Key:
[1] = Metabolic stability in CD-1 mouse plasma assessed as half life at 3 uM measured after 2 hrs by UPLC-MS/MS analysis; assay type: ADME, cell-free
[2] = Metabolic stability in human intestinal S9 fraction assessed as half life at 3 uM measured after 2 hrs in presence of NADPH by UPLC-MS/MS analysis; assay type: ADME, subcellular, Intestine; details: s9, 2 h
[3] = Metabolic stability in Sprague-Dawley rat intestinal S9 fraction assessed as half life at 3 uM measured after 2 hrs in absence of NADPH by UPLC-MS/MS analysis; assay type: ADME, subcellular, Intestine; details: s9, 2 h
[4] = Metabolic stability in CD-1 mouse liver S9 fraction assessed as half life measured at 3 uM after 2 hrs in presence of NADPH by UPLC-MS/MS analysis; assay type: ADME, subcellular; details: s9, 2 h
[5] = Drug metabolism in Cynomolgus monkey hepatocytes assessed as (R)-2-hydroxy-3-propionamido-3,4-dihydro-2H-benzo[e][1,2]oxaborinine-8-carboxylic acid formation at 2 to 20 uM incubated for 240 mins by UPLC-HR-MS/MS analysis; assay type: ADME, cell-based, Macaca fascicularis, Hepatocyte; details: 4 h, dose 2-20 µM
[6] = Drug metabolism in Beagle dog hepatocytes assessed as (R)-2-hydroxy-3-propionamido-3,4-dihydro-2H-benzo[e][1,2]oxaborinine-8-carboxylic acid formation at 2 to 20 uM incubated for 240 mins by UPLC-HR-MS/MS analysis; assay type: ADME, cell-based, Canis lupus familiaris, Hepatocyte; details: 4 h, dose 2-20 µM
[7] = Metabolic stability in human liver S9 fraction assessed as half life at 3 uM measured after 2 hrs in presence of NADPH by UPLC-MS/MS analysis; assay type: ADME, subcellular; details: s9, 2 h
[8] = Metabolic stability in Cynomolgus monkey intestinal S9 fraction assessed as half life at 3 uM measured after 2 hrs in presence of NADPH by UPLC-MS/MS analysis; assay type: ADME, subcellular, Macaca fascicularis, Intestine; details: s9, 2 h
[9] = Drug metabolism in rabbit hepatocytes assessed as (R)-2-hydroxy-3-propionamido-3,4-dihydro-2H-benzo[e][1,2]oxaborinine-8-carboxylic acid formation at 2 to 20 uM incubated for 240 mins by UPLC-HR-MS/MS analysis; assay type: ADME, cell-based, Oryctolagus cuniculus, Hepatocyte; details: 4 h, dose 2-20 µM
[10] = Drug metabolism in mouse hepatocytes assessed as (R)-2-hydroxy-3-propionamido-3,4-dihydro-2H-benzo[e][1,2]oxaborinine-8-carboxylic acid formation at 2 to 20 uM incubated for 240 mins by UPLC-HR-MS/MS analysis; assay type: ADME, cell-based, Hepatocyte; details: 4 h, dose 2-20 µM
[11] = Metabolic stability in CD-1 mouse intestinal S9 fraction assessed as half life measured at 3 uM after 2 hrs in absence of NADPH by UPLC-MS/MS analysis; assay type: ADME, subcellular, Intestine; details: s9, 2 h
[12] = Drug metabolism in rat hepatocytes assessed as (R)-2-hydroxy-3-propionamido-3,4-dihydro-2H-benzo[e][1,2]oxaborinine-8-carboxylic acid formation at 2 to 20 uM incubated for 240 mins by UPLC-HR-MS/MS analysis; assay type: ADME, cell-based, Hepatocyte; details: 4 h, dose 2-20 µM
[13] = Metabolic stability in Cynomolgus monkey intestinal S9 fraction assessed as half life at 3 uM measured after 2 hrs in absence of NADPH by UPLC-MS/MS analysis; assay type: ADME, subcellular, Macaca fascicularis, Intestine; details: s9, 2 h
[14] = Metabolic stability in Sprague-Dawley rat intestinal S9 fraction assessed as half life at 3 uM measured after 2 hrs in presence of NADPH by UPLC-MS/MS analysis; assay type: ADME, subcellular, Intestine; details: s9, 2 h
[15] = Metabolic stability in CD-1 mouse liver S9 fraction assessed as half life measured at 3 uM after 2 hrs in absence of NADPH by UPLC-MS/MS analysis; assay type: ADME, subcellular; details: s9, 2 h
[16] = Apparent permeability across basolateral to apical side in human Caco-2 cells at 5 uM measured after 2 hrs by LC-MS/MS method; assay type: ADME, cell-based; details: caco-2, 2 h
[17] = Metabolic stability in Beagle dog plasma assessed as half life at 3 uM measured after 2 hrs by UPLC-MS/MS analysis; assay type: ADME, cell-free, Canis lupus familiaris
[18] = Efflux ratio of apparent permeability from basolateral to apical side over apical to basolateral side in human Caco-2 cells at 5 uM measured after 2 hrs by LC-MS/MS method; assay type: ADME, cell-based; details: caco-2, 2 h
[19] = Metabolic stability in Cynomolgus monkey plasma assessed as half life at 3 uM measured after 2 hrs by UPLC-MS/MS analysis; assay type: ADME, cell-free, Macaca fascicularis
[20] = Metabolic stability in Sprague-Dawley rat liver S9 fraction assessed as half life at 3 uM measured after 2 hrs in presence of NADPH by UPLC-MS/MS; assay type: ADME, subcellular; details: s9, 2 h
[21] = Metabolic stability in Beagle dog liver S9 fraction assessed as half life at 3 uM measured after 2 hrs in absence of NADPH by UPLC-MS/MS analysis; assay type: ADME, subcellular, Canis lupus familiaris; details: s9, 2 h
[22] = Metabolic stability in Cynomolgus monkey liver S9 fraction assessed as half life at 3 uM measured after 2 hrs in absence of NADPH by UPLC-MS/MS analysis; assay type: ADME, subcellular, Macaca fascicularis; details: s9, 2 h
[23] = Metabolic stability in Cynomolgus monkey liver S9 fraction assessed as half life at 3 uM measured after 2 hrs in presence of NADPH by UPLC-MS/MS analysis; assay type: ADME, subcellular, Macaca fascicularis; details: s9, 2 h
[24] = Metabolic stability in Sprague-Dawley rat liver S9 fraction assessed as half life at 3 uM measured after 2 hrs in absence of NADPH by UPLC-MS/MS analysis; assay type: ADME, subcellular; details: s9, 2 h
[25] = Metabolic stability in human plasma assessed as half life at 3 uM measured after 2 hrs by UPLC-MS/MS analysis; assay type: ADME, cell-free
[26] = Metabolic stability in Beagle dog intestinal S9 fraction assessed as half life at 3 uM measured after 2 hrs in absence of NADPH by UPLC-MS/MS analysis; assay type: ADME, subcellular, Canis lupus familiaris, Intestine; details: s9, 2 h
[27] = Metabolic stability in human intestinal S9 fraction assessed as half life at 3 uM measured after 2 hrs in absence of NADPH by UPLC-MS/MS analysis; assay type: ADME, subcellular, Intestine; details: s9, 2 h
[28] = Metabolic stability in Sprague-Dawley rat plasma assessed as half life at 3 uM measured after 2 hrs by UPLC-MS/MS analysis; assay type: ADME, cell-free
[29] = Apparent permeability across apical to basolateral side in human Caco-2 cells at 5 uM measured after 2 hrs by LC-MS/MS method; assay type: ADME, cell-based; details: caco-2, 2 h
[30] = Metabolic stability in Beagle dog intestinal S9 fraction assessed as half life at 3 uM measured after 2 hrs in presence of NADPH by UPLC-MS/MS analysis; assay type: ADME, subcellular, Canis lupus familiaris, Intestine; details: s9, 2 h
[31] = Metabolic stability in Beagle dog liver S9 fraction assessed as half life at 3 uM measured after 2 hrs in presence of NADPH by UPLC-MS/MS analysis; assay type: ADME, subcellular, Canis lupus familiaris; details: s9, 2 h
[32] = Drug metabolism in human hepatocytes assessed as (R)-2-hydroxy-3-propionamido-3,4-dihydro-2H-benzo[e][1,2]oxaborinine-8-carboxylic acid formation at 2 to 20 uM incubated for 240 mins by UPLC-HR-MS/MS analysis; assay type: ADME, cell-based, Hepatocyte; details: 4 h, dose 2-20 µM

SMILES: CCC(=O)N[C@H]1Cc2cccc(C(=O)OCOC(=O)C(CC)CC)c2OB1O [LEDABORBACTAM ETZADROXIL]
- t1/2 [1]: 4.6 min
- t1/2 [2]: 2.9 min
- t1/2 [3]: 4 min
- t1/2 [4]: 1.2 min
- Drug metabolism [5]: Metabolite_Detected
- Drug metabolism [6]: Metabolite_Detected
- t1/2 [7]: 1 min
- t1/2 [8]: 11.2 min
- Drug metabolism [9]: Metabolite_Detected
- Drug metabolism [10]: Metabolite_Detected
- t1/2 [11]: 1.1 min
- Drug metabolism [12]: Metabolite_Detected
- t1/2 [13]: 10.1 min
- t1/2 [14]: 3.9 min
- t1/2 [15]: 1.3 min
- Papp [16]: 29.4 10^-6 cm/s
- t1/2 [17]: 43.9 min
- Ratio [18]: 3.2
- t1/2 [19]: 22 min
- t1/2 [20]: 2.3 min
- t1/2 [21]: 0.7 min
- t1/2 [22]: 0.9 min
- t1/2 [23]: 0.8 min
- t1/2 [24]: 2.8 min
- t1/2 [25]: 10.7 min
- t1/2 [26]: 119 min
- t1/2 [27]: 3.3 min
- t1/2 [28]: 1.6 min
- Papp [29]: 9.22 10^-6 cm/s
- t1/2 [30]: 49 min
- t1/2 [31]: 0.5 min
- Drug metabolism [32]: Metabolite_Detected
